The values below come from patent US20100299770A1, “TARGETED CELL DEATH” (priority 2007, published 2010).

For assay [1], the system named is primary oligodendrocyte cultures. The experiment in a line: CID-induced cell death in iCP9 virus-transduced primary oligodendrocyte cultures. The class given is cell-based, rat. As to conditions: CID 10 nM; cultures stably expressing iCP9; fluorescent microscope and Methylene Blue viability staining. How it is done:
293T cells were transfected with the pΔmbpICP9/mEGFP vector along with plasmids encoding the gag-pol and RD114 envelope protein using lipofectamine (Invitrogen, Carlsbad, Calif.). Forty-eight hours after transfection viral supernatant were harvested and either directly applied to target cells or snap frozen and stored at -80° C.
To induce timely cell death. Collected virus was used to transduce primary oligodendrocyte cultures that have been established. Cells were cultured and evaluated using fluorescent microscopy for the expression of GFP. The extent of GFP positive cells correlated with the viral infection efficacy. Cell protein isolation was conducted and protein isolates were subjected to Western blot transfer to detect stable expression of the iCP9 protein. The resultant membrane was probed with anti-caspase 9 antibody (R&D Systems Inc. #AF8301). Once the stable expression of iCP9 was confirmed at the protein level wan western mot techniques, the CID was applied to these cells in culture at a 10 nM concentration. […] Cell death was detected by viewing cultures under the fluorescent microscope and by using Methylene Blue (Sigma) viability staining of cells in culture after exposure to the CID. All experiments were run in parallel using the astrocyte-derived U87 cell line as a negative control.

Assay [2] deals with CNS of adult rats. The experiment in a line: Animal model of CNS demyelination, virus applied to CNS of adult rats, CID intraperitoneal. The conditions noted are these: CID via intraperitoneal injection at various times after virus. The class given is in vivo, rat. The protocol: The virus described above, pΔmbpICP9/mEGFP, which contains the inducible caspase 9 sequence was applied to the CNS of adult rats to create an in vivo model of CNS demyelination. Administration of the viral vector allowed effective transfer of genetic information in a variable area of parenchyma based on the rate of administration (convective distribution) and viral titer. […] First, adult Fischer rats were anaesthetized by intraperitoneal injection o f ketamine hydrocholoride (80 mg/kg) and xylazine ([…]) and placed in a sereotactic frame. A midline scalp incision is made. Access to brain parenchyma was accomplished by plaement of a right-sided burr hole through the skull, at various predetermined coordinates depending on the desired location of the lesion. […] The volume of viral vector (e.g., lentivirus) delivered depends upon the infection efficacy as determined herein and the target area size. After injection, the needle is left in place for five minutes and then slowly withdrawn over the next four minutes. The skin was closed with sutures.
For virus administration to the spinal cord an incision was made in the thoracic spine followed by a lamenectomy to expose the spinal cord. A No. 32S-gauge needle was passed into the posterior column at predetermined coordinates.

The structures appear in SMILES notation.

Consider `CC[C@H](C(=O)N1CCCC[C@H]1C(=O)O[C@H](CCc1ccc(OC)c(OC)c1)c1cccc(OCC(=O)NCC(CNC(=O)COc2cccc([C@@H](CCc3ccc(OC)c(OC)c3)OC(=O)[C@@H]3CCCCN3C(=O)[C@@H](CC)c3cc(OC)c(OC)c(OC)c3)c2)CN(C)C)c1)c1cc(OC)c(OC)c(OC)c1` [CID, AP20187], for which the “cell death of infected cells after CID” value in assay [1] is “induced the cellular death of infected cells”. In addition, the “effect of CID on the infected region of the CNS” value in assay [2] is recorded as “apoptosis of the infected region of the CNS”.
